According to patent US20250214991A1 (Oncopia Therapeutics, Inc. d/b/a/ SK Life Science Labs, priority 2022, published 2025):

Key:
IKZF2 [1] = molecular target: T1, IKZF2 (Homo sapiens (Human), UniProt Q96SW2+Q9UKS7); assay: In vitro IKZF2 FACS Assay in Jurkat cells; type: cell-based; settings: 24 hrs; for DC50: half maximal degradation concentration; for Dmax: maximal degradation percentage
Experimental: In vitro IKZF2 FACS Assay
DC50, A: <1 nM; B: 1-10 nM; C: 10-100 nM; D: 100-1000 nM; E: >1000 nM. Dmax, A: >80%; B: 60-80%; C: 40-60%; D: 20-40%; E: <20%.

CRBN/DDB1 = CRBN/DDB1 (Homo sapiens (Human), UniProt Q96SW2); assay: IC50 measurements for binding to CRBN/DDB1 (HTRF); settings: His tagged CRBN+DDB, Cy5-labeled Thalidomide probe, one hour
In short: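 Serially diluted compounds compete with a Cy5-labeled thalidomide tracer (60 nM) for His-tagged CRBN-DDB1 (2 nM), detected via anti-6His Tb cryptate (0.4 nM); buffer HEPES pH 7.5 with TCEP, Brij-35, NaCl, BSA. One-hour room-temperature incubation, HTRF signal read, IC50 by four-parameter curve.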

IKZF1 = IKZF1 (Homo sapiens (Human), UniProt Q13422+Q96SW2); assay: In vitro IKZF1 HiBit Assay (HEK293T Flp-in-HiBiT-IKZF1 stable cell line); type: cell-based; settings: HEK293T Flp-in-HiBiT-IKZF1 stable cell line, 6 hrs incubation; for DC50: read-out: IKZF1 HiBit DC50; for Dmax: HEK-293T, read-out: IKZF1 HiBit Dmax (%)
In short: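 Degradation was measured as loss of luminescence from the HiBiT-IKZF1 tag after 6 h compound treatment, with 0.1% final DMSO, in stable HEK293T Flp-in cells. Values were normalized to DMSO, giving the 50% degradation concentration and the maximal degradation range.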

IKZF2 [2] = molecular target: T1, IKZF2; assay: In vitro IKZF2 HiBit Assay (HEK293T Flp-in-HiBiT cells); type: cell-based; settings: HEK293T Flp-in-HiBiT cells, 6 hrs incubation; for DC50: read-out: IKZF2 HiBit DC50; for Dmax: HEK-293T, read-out: IKZF2 HiBit Dmax (%)
In short: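 Remaining tagged Helios was read as lytic HiBiT/LgBiT luminescence normalized to DMSO, yielding binned DC50 and Dmax values. Treatment ran 6 h, with compounds at 11 three-fold doses diluted from 1 mM and 0.1% final DMSO. The cells were HEK293T Flp-in with CRISPR knock-in of HiBiT at the IKZF2 N-terminus.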

T1 sequence (Q9UKS7 whole entry): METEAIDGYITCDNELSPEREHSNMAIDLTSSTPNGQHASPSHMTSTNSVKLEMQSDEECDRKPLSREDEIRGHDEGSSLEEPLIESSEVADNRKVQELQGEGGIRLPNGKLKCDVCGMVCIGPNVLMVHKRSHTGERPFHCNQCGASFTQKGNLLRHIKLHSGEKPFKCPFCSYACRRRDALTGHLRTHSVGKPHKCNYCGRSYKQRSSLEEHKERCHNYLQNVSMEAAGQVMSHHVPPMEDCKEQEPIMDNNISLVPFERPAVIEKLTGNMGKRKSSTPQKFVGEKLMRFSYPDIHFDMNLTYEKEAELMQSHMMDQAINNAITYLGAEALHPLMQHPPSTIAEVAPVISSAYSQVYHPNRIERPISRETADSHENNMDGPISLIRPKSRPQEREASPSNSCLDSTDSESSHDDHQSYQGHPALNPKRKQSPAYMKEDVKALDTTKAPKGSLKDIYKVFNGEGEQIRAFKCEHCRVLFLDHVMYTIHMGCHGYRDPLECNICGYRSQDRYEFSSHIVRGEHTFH
T1 sequence (Q96SW2 whole entry): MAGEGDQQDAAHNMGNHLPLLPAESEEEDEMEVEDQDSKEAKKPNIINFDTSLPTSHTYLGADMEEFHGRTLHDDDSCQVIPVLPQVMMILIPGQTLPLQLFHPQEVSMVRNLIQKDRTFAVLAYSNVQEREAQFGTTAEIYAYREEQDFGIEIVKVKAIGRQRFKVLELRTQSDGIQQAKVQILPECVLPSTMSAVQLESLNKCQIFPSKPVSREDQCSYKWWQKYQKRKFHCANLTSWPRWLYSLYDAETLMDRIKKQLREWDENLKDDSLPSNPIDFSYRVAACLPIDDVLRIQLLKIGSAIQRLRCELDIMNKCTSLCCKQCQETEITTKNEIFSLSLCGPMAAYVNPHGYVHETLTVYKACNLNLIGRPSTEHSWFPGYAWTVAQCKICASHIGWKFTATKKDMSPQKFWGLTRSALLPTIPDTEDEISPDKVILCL
T1 sequence (Q16531 2-1140 partner): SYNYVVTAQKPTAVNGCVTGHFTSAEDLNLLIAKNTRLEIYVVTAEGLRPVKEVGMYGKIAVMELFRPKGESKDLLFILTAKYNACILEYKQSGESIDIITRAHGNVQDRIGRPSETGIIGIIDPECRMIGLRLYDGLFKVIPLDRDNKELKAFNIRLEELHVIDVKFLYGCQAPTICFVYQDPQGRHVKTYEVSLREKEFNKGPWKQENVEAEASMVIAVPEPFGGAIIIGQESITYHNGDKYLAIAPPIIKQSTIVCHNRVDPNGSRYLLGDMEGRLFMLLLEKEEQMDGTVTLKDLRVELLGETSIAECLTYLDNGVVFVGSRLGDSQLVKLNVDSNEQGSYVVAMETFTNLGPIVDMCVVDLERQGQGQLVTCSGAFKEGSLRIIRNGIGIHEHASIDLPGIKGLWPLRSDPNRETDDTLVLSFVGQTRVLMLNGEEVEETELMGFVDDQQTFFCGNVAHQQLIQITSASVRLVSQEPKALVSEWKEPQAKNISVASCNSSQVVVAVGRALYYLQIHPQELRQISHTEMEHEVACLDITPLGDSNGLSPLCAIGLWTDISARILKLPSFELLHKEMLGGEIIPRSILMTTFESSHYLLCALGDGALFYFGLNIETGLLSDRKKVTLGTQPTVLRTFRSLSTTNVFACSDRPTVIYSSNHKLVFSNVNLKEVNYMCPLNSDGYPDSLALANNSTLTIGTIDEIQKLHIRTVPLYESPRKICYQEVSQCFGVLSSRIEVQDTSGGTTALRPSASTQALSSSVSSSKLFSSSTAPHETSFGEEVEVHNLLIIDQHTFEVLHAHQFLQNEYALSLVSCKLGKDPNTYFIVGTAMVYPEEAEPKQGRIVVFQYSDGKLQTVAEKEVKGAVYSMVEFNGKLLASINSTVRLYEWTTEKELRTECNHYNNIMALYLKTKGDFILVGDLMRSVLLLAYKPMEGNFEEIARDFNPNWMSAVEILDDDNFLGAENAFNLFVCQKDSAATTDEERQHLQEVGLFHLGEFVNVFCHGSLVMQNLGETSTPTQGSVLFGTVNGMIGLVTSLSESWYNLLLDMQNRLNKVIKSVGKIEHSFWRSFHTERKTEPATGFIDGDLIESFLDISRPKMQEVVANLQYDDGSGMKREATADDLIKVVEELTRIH
Chain of IKZF1 (Q13422 whole entry): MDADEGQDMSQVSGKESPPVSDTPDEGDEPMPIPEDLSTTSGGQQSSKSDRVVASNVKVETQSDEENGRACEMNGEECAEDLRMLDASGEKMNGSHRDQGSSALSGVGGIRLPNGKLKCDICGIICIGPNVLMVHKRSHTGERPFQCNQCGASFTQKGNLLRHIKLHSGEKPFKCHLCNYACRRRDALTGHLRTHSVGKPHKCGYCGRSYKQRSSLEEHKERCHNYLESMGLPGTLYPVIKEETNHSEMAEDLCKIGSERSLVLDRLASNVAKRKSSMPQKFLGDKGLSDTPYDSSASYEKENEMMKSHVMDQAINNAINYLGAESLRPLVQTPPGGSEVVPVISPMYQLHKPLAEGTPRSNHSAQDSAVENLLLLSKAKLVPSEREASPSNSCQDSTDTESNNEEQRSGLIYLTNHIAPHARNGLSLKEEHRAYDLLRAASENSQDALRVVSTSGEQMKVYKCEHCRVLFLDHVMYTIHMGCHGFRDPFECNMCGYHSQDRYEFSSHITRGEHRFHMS
Chain of IKZF1 (Q96SW2 whole entry): as the sequence (Q96SW2 whole entry) above
Chain of IKZF1 (Q16531 2-1140 partner): as the sequence (Q16531 2-1140 partner) above
Chain of CRBN/DDB1 (Q96SW2 whole entry, species assumed): as the sequence (Q96SW2 whole entry) above
Chain of CRBN/DDB1 (Q16531 whole entry partner, species assumed): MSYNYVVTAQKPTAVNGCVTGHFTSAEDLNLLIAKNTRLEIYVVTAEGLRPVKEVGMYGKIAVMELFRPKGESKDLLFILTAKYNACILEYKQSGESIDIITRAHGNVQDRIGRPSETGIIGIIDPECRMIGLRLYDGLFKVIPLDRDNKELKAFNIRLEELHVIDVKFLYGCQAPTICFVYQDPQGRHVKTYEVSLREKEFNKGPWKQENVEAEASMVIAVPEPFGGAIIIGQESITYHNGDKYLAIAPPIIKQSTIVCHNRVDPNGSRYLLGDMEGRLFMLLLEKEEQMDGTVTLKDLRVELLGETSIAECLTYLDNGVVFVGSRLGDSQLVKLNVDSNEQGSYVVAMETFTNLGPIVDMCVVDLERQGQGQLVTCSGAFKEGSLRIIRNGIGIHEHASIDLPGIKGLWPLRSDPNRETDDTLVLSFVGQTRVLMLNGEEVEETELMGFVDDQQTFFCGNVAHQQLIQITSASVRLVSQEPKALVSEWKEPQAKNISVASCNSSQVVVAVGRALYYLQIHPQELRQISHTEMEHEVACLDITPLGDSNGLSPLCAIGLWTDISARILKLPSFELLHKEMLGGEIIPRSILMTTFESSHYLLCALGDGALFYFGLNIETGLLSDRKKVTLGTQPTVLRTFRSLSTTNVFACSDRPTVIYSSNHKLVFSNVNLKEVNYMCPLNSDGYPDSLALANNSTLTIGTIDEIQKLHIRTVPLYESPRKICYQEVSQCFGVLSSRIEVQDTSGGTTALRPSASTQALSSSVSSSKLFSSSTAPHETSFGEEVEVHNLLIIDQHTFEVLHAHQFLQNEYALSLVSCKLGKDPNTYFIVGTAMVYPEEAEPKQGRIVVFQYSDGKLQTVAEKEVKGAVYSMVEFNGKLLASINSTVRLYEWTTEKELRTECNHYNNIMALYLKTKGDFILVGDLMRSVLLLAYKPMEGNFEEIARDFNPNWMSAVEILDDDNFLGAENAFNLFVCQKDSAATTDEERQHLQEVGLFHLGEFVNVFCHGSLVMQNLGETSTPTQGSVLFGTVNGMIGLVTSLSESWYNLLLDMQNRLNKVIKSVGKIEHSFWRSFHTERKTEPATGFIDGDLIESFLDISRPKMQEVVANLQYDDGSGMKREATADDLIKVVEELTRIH

Structure (SMILES) | DC50 (IKZF2 [1]) | Dmax (IKZF2 [1]) | DC50 (IKZF1) | Dmax (IKZF1) | DC50 (IKZF2 [2]) | Dmax (IKZF2 [2]) | IC50 (CRBN/DDB1)
CC(NCc1cc(-c2ccc3c(c2)CN(C2CCC(=O)NC2=O)C3=O)n2cncc2c1)c1ccccc1Cl (stereo not drawn) [Example 23, 3-(5-(7-(((1-(2-chlorophenyl)ethyl)amino)methyl)imidazo[1,5-a]pyridin-5-yl)-1-oxoisoindolin-2-yl) piperidine-2,6-dione] | 10 to 100 nM | 20 to 40% | – | – | – | – | 1000 to 5000 nM
O=C1CCC(N2Cc3cc(-c4cc(CN5CC6CC6C5)cc5cncn45)ccc3C2=O)C(=O)N1 (stereo not drawn) [Example 7, 3-(5-(7-((3-azabicyclo[3.1.0]hexan-3-yl)methyl)imidazo[1,5-a]pyridin-5-yl)-1-oxoisoindolin-2-yl) piperidine-2,6-dione] | 10 to 100 nM | 40 to 60% | – | – | – | – | 500 to 1000 nM
CC(C)Nc1n[nH]c2c(CN3CC4COCC4C3)cc(-c3ccc4c(c3F)CN(C3CCC(=O)NC3=O)C4=O)nc12 (stereo not drawn) [Example 288, 3-(4-fluoro-5-(3-(isopropylamino)-7-((tetrahydro-1H-furo[3,4-c]pyrrol-5 (3H)-yl)methyl)-1H-pyrazolo[4,3-b]pyridin-5-yl)-1-oxoisoindolin-2-yl) piperidine-2,6-dione] | 10 to 100 nM | 60 to 80% | > 10000 nM | < 20% | 1 to 10 nM | > 80% | –
CC(C)Nc1n[nH]c2c(CN3CCC4(CC3)COC4)cc(-c3ccc4c(c3F)CN(C3CCC(=O)NC3=O)C4=O)nc12 (stereo not drawn) [Example 284, 3-(5-(7-((2-oxa-7-azaspiro[3.5]nonan-7-yl)methyl)-3-(isopropylamino)-1H-pyrazolo[4,3-b]pyridin-5-yl)-4-fluoro-1-oxoisoindolin-2-yl) piperidine-2,6-dione] | 10 to 100 nM | 60 to 80% | 10 to 100 nM | 20 to 40% | 1 to 10 nM | > 80% | –
CC(C)Nc1n[nH]c2c(CN3CCC(F)CC3)cc(-c3ccc4c(c3F)CN(C3CCC(=O)NC3=O)C4=O)nc12 (stereo not drawn) [Example 282, 3-(4-fluoro-5-(7-((4-fluoropiperidin-1-yl)methyl)-3-(isopropylamino)-1H-pyrazolo[4,3-b]pyridin-5-yl)-1-oxoisoindolin-2-yl) piperidine-2,6-dione] | 10 to 100 nM | > 80% | 1000 to 10000 nM | 20 to 40% | 1 to 10 nM | > 80% | –
Cc1cc2c(CN3CCCC3)cc(-c3ccc4c(c3)CN(C3CCC(=O)NC3=O)C4=O)nc2n1C1COC1 (stereo not drawn) [Example 275, 3-(5-(2-methyl-1-(oxetan-3-yl)-4-(pyrrolidin-1-ylmethyl)-1H-pyrrolo[2,3-b]pyridin-6-yl)-1-oxoisoindolin-2-yl) piperidine-2,6-dione] | 10 to 100 nM | 60 to 80% | > 10000 nM | < 20% | 1 to 10 nM | 60 to 80% | –
CC(C)Nc1n[nH]c2c(CN3CCC(C(F)(F)F)CC3)cc(-c3ccc4c(c3F)CN(C3CCC(=O)NC3=O)C4=O)nc12 (stereo not drawn) [Example 290, 3-(4-fluoro-5-(3-(isopropylamino)-7-((4-(trifluoromethyl)piperidin-1-yl)methyl)-2H-pyrazolo[4,3-b]pyridin-5-yl)-1-oxoisoindolin-2-yl) piperidine-2,6-dione] | 10 to 100 nM | 60 to 80% | > 10000 nM | < 20% | 1 to 10 nM | 60 to 80% | –
O=C1CCC(N2Cc3cc(-c4cc(CN5CCCC5)c5nccc(OC6CC6)c5n4)ccc3C2=O)C(=O)N1 (stereo not drawn) [Example 242, 3-(5-(8-cyclopropoxy-4-(pyrrolidin-1-ylmethyl)-1,5-naphthyridin-2-yl)-1-oxoisoindolin-2-yl) piperidine-2,6-dione] | 1 to 10 nM | > 80% | > 10000 nM | < 20% | 1 to 10 nM | > 80% | –
Cn1cnc2c(CN3CCCC3)cc(-c3ccc4c(c3)CN(C3CCC(=O)NC3=O)C4=O)nc21 (stereo not drawn) [Example 180, 3-(5-(3-methyl-7-(pyrrolidin-1-ylmethyl)-3H-imidazo[4,5-b]pyridin-5-yl)-1-oxoisoindolin-2-yl) piperidine-2,6-dione] | 10 to 100 nM | > 80% | 1 to 10 nM | 20 to 40% | 1 to 10 nM | > 80% | –
COC1CCN(Cc2cc(-c3ccc4c(c3F)CN(C3CCC(=O)NC3=O)C4=O)nc3c(NC(C)C)n[nH]c23)CC1 (stereo not drawn) [Example 283, 3-(4-fluoro-5-(3-(isopropylamino)-7-((4-methoxypiperidin-1-yl)methyl)-1H-pyrazolo[4,3-b]pyridin-5-yl)-1-oxoisoindolin-2-yl) piperidine-2,6-dione] | 1 to 10 nM | > 80% | > 10000 nM | < 20% | 1 to 10 nM | > 80% | –
O=C1CCC(N2Cc3c(ccc(-c4cc(CN5CCC(F)CC5)c5ccn(C6CS(=O)(=O)C6)c5n4)c3F)C2=O)C(=O)N1 (stereo not drawn) [Example 268, 3-(5-(1-(1,1-dioxidothietan-3-yl)-4-((4-fluoropiperidin-1-yl)methyl)-1H-pyrrolo[2,3-b]pyridin-6-yl)-4-fluoro-1-oxoisoindolin-2-yl) piperidine-2,6-dione] | 1 to 10 nM | > 80% | 10 to 100 nM | 40 to 60% | < 1 nM | > 80% | –
O=C1CCC(N2Cc3c(ccc(-c4cc(CN5CCCC5)c5[nH]nc(NC6CCC6)c5n4)c3F)C2=O)C(=O)N1 (stereo not drawn) [Example 295, 1.3-(5-(3-(cyclobutylamino)-7-(pyrrolidin-1-ylmethyl)-1H-pyrazolo[4,3-b]pyridin-5-yl)-4-fluoro-1-oxoisoindolin-2-yl) piperidine-2,6-dione] | 1 to 10 nM | > 80% | 10 to 100 nM | 40 to 60% | < 1 nM | > 80% | –

Continued, in another order:

DC50 (IKZF2 [1]) | Dmax (IKZF2 [1]) | DC50 (IKZF1) | Dmax (IKZF1) | DC50 (IKZF2 [2]) | Dmax (IKZF2 [2]) | Structure (SMILES) | IC50 (CRBN/DDB1)
1 to 10 nM | > 80% | 10 to 100 nM | 60 to 80% | 1 to 10 nM | > 80% | CN1CC(n2ccc3c(CN4CCCC4)cc(-c4ccc5c(c4F)CN(C4CCC(=O)NC4=O)C5=O)nc32)C1 (stereo not drawn) [Example 260, 3-(4-fluoro-5-(1-(1-methylazetidin-3-yl)-4-(pyrrolidin-1-ylmethyl)-1H-pyrrolo[2,3-b]pyridin-6-yl)-1-oxoisoindolin-2-yl) piperidine-2,6-dione] | –
1 to 10 nM | > 80% | 10 to 100 nM | 40 to 60% | 1 to 10 nM | > 80% | CNc1n[nH]c2c(CN3CCCC3)cc(-c3ccc4c(c3)CN(C3CCC(=O)NC3=O)C4=O)nc12 (stereo not drawn) [Example 181, 3-(5-(3-(methylamino)-7-(pyrrolidin-1-ylmethyl)-1H-pyrazolo[4,3-b]pyridin-5-yl)-1-oxoisoindolin-2-yl) piperidine-2,6-dione] | –
1 to 10 nM | > 80% | 10 to 100 nM | 20 to 40% | 1 to 10 nM | > 80% | O=C1CCC(N2Cc3c(ccc(-c4cc(CN5CC6COCC6C5)c5ccn(C6CS(=O)(=O)C6)c5n4)c3F)C2=O)C(=O)N1 (stereo not drawn) [Example 269, 3-(5-(1-(1,1-dioxidothietan-3-yl)-4-((tetrahydro-1H-furo[3,4-c]pyrrol-5 (3H)-yl)methyl)-1H-pyrrolo[2,3-b]pyridin-6-yl)-4-fluoro-1-oxoisoindolin-2-yl) piperidine-2,6-dione] | –
1 to 10 nM | > 80% | > 10000 nM | < 20% | 1 to 10 nM | > 80% | O=C1CCC(N2Cc3cc(-c4cc(CN5CCCC5)c5cnn(C6CCC6)c5n4)ccc3C2=O)C(=O)N1 (stereo not drawn) [Example 206, 3-(5-(1-cyclobutyl-4-(pyrrolidin-1-ylmethyl)-1H-pyrazolo[3,4-b]pyridin-6-yl)-1-oxoisoindolin-2-yl) piperidine-2,6-dione] | –
1 to 10 nM | > 80% | 10 to 100 nM | 60 to 80% | 1 to 10 nM | > 80% | Nc1[nH]nc2c(CN3CCCC3)cc(-c3ccc4c(c3F)CN(C3CCC(=O)NC3=O)C4=O)nc12 (stereo not drawn) [Example 318, 3-(5-(3-amino-7-(pyrrolidin-1-ylmethyl)-2H-pyrazolo[4,3-b]pyridin-5-yl)-4-fluoro-1-oxoisoindolin-2-yl) piperidine-2,6-dione] | –
1 to 10 nM | > 80% | > 10000 nM | < 20% | < 1 nM | > 80% | O=C1CCC(N2Cc3c(ccc(-c4nc5c(ccn5C5COC5)c(CN5CCCC5)c4Cl)c3F)C2=O)C(=O)N1 (stereo not drawn) [Example 270, 3-(5-(5-chloro-1-(oxetan-3-yl)-4-(pyrrolidin-1-ylmethyl)-1H-pyrrolo[2,3-b]pyridin-6-yl)-4-fluoro-1-oxoisoindolin-2-yl) piperidine-2,6-dione] | –
